In patent US5723747A, “Wax esters in transformed plants” (Calgene, Inc., priority 1994, dated 1998):
Where two headings read alike, the source gives them in different places.

Key:
[1] = target: T1, jojoba acyl-CoA reductase (Simmondsia chinensis, UniProt Q9XGY7, S459G); assay: biochemical; settings: for Reductase Activity, Acyl-CoA (10 μM): acyl-CoA as substrate at 10 μM, 0.5M NaCl, pH 7.5; for effect of end-products and cofactors on reductase activity (in words): CoA and NADP+ at millimolar concentrations; for effect of salt on reductase activity (in words): 0.5M monobasic salts, divalent salts at 0.167M and 0.5M
Method: (§1) […] The incubation mixture also contains 10% w/v glycerol, 1 mM DTT, and is buffered with 50 mM HEPES (4-[2-hydroxyethyl]-1-piperazineethane-sulfonic acid) (HEPES, here and as referred to hereafter is added from a 1M stock solution adjusted to pH 7.5).
(§2) […] The assay is terminated by placing the assay tube on ice and immediately adding 0.25 ml isopropanol:acetic acid (5:1 v/v). Unlabeled wax esters (0.1 mg) and oleyl alcohol (0.1 mg) are added as carriers. The [^14 C] lipids are extracted by the scaled-down protocol of Hara and Radin (Anal. Biochem. (1978) 90:420). Six ml of hexane/isopropanol (3:2, v/v) is added to the terminated assay. The sample is vortexed, 2 ml of aqueous sodium sulphate solution (5.5% w/v) is added, and the sample is again vortexed.
(§3) The incubation mixture also contains 10% w/v glycerol, 1 mM DTT, and is buffered with 50 mM HEPES (4-[2-hydroxyethyl]-1-piperazineethane-sulfonic acid) (HEPES, here and as referred to hereafter is added from a 1M stock solution adjusted to pH 7.5). […]
as §2, with “(4:1” for “(5:1”, “(25 μg),” for “(0.1 mg) and”, “(50 μg), and oleic acid (50 μg)” for “(0.1 mg)”, “Four” for “Six”, “(6.7%” for “(5.5%”
(§4) Following addition of the sodium sulphate and vortexing the sample, the upper organic phase is removed and the lower aqueous phase is washed with 4 ml hexane/isopropanol (7:2 v/v). The organic phases are pooled and evaporated to dryness under nitrogen. The lipid residue is resuspended in a small volume of heptane, and an aliquot is assayed for radioactivity by liquid scintillation counting. The remainder of the sample can be used either for TLC analysis of the labeled classes, or for derivatization to cleave the wax esters, and thereby give a measure of total alcohol produced.
(§5) For lipid class analysis the sample is applied to a silica TLC plate, and the plate is developed in hexane/diethyl ether/acetic acid (such as 80:20:1 or 70:30:1 v/v/v). The distribution of radioactivity between the lipid classes, largely wax esters (when ligase is present, as in the microsomal membrane preparation assay), free fatty acids, fatty alcohols, and polar lipids at the origin, is measured using an AMBIS radioanalytic imaging system (AMBIS Systems Inc., San Diego, Calif.). If necessary the individual lipid classes can be recovered from the TLC plate for further analysis.
(§6) Following addition of the sodium sulfate and vortexing the sample, a known percentage of the organic phase is removed and counted via liquid scintillation counting. This calculation is used to estimate the total counts in the organic phase.

jojoba wax synthase = target: T2, jojoba wax synthase (Simmondsia chinensis, UniProt Q9XGY6); assay: Wax synthase assay, microsomal membrane fraction; assay type: biochemical; settings: for Wax synthase Activity, Acyl Group: 80 μM acyl-CoA substrate, 100 μM radiolabeled oleyl alcohol; for Wax synthase Activity, Alcohol Group: 100 μM alcohol substrate, 40 μM radiolabeled eicosenoyl-CoA
T2 construct: added to a microsomal membrane fraction having wax synthase activity; from tissue; host or cells: jojoba microsomal membrane fraction
T2 sequence (Q9XGY6 1-352): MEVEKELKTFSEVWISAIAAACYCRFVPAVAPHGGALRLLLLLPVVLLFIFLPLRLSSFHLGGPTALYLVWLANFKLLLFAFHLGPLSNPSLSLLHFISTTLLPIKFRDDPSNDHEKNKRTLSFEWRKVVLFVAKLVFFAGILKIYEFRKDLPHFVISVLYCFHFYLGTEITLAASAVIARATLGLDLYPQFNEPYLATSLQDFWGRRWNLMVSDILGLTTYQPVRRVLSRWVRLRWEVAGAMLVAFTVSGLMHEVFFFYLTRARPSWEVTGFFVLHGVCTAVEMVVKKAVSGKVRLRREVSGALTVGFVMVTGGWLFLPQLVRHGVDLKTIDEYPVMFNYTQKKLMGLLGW
Method: Wax synthase activity is measured by incubation of 40 μM [1-^14 C]acyl-CoA (usually palmitoyl-CoA, sp. act. 5.1-5.6 mCi/mmol) and 200 μM oleyl alcohol with the sample to be assayed in a total volume of 0.25 ml. The incubation mixture also contains 20% w/v glycerol, 1 mM DTT, 0.5M NaCl and is buffered with 25 mM HEPES (4-[2-hydroxyethyl]-1-piperazineethane-sulfonic acid).
A substrate mixture is prepared in a glass vial, with oleyl alcohol being added immediately before use, and is added to samples.
Acyl-CoA and alcohol substrates having varying carbon chain lengths and degrees of unsaturation were added to a microsomal membrane fraction having wax synthase activity to determine the range of substrates recognized by the jojoba wax synthase. Wax synthase activity was measured as described in Example 1, with acyl specificity measured using 80 μM of acyl-CoA substrate and 100 μM of radiolabeled oleyl alcohol. Alcohol specificity was measured using 100 μM of alcohol substrate and 40 μM of radiolabeled eicosenoyl-CoA.

[2] = target: jojoba acyl-CoA reductase (Simmondsia chinensis, UniProt Q9XGY7); assay: biochemical
Method: as §1, §2, §3
as §2, with “(4:1” for “(5:1”, “(25 μg),” for “(0.1 mg) and”, “(50 μg), and oleic acid (50 μg)” for “(0.1 mg)”, “Four” for “Six”, “(6.7%” for “(5.5%”
as §4, §5, §6

[3] = target: T3, acyl CoA: alcohol acyl transferase (Simmondsia chinensis, UniProt Q9XGY6); assay: Acyl CoA: alcohol acyl transferase activity in the membrane preparation; assay type: biochemical, jojoba; settings: 0.3% w/v in the assay mixture
T3 construct: activity which is also present in the membrane preparation; from tissue; host or cells: microsomal membrane preparation (jojoba embryos)
T3 sequence (Q9XGY6 1-352): T2 sequence (Q9XGY6 1-352)
Source text: If it is desired to inhibit an acyl CoA: alcohol acyl transferase activity which is also present in the membrane preparation (and which consumes the product of the reductase reaction), 0.3% w/v CHAPS is included in the assay mixture.

[4] = target: T1, jojoba acyl-CoA reductase; design: The microsomal membrane preparation described above is used for further characterization of the reductase enzyme; from tissue; host or cells: jojoba embryos (about 90 to 110 days postanthesis), microsomal membrane preparation; settings: previously shown, Pollard et al.; cited from earlier work
[5] = palmitoyl thioesters as acyl substrates

T1 sequence (Q9XGY7 whole entry S459G): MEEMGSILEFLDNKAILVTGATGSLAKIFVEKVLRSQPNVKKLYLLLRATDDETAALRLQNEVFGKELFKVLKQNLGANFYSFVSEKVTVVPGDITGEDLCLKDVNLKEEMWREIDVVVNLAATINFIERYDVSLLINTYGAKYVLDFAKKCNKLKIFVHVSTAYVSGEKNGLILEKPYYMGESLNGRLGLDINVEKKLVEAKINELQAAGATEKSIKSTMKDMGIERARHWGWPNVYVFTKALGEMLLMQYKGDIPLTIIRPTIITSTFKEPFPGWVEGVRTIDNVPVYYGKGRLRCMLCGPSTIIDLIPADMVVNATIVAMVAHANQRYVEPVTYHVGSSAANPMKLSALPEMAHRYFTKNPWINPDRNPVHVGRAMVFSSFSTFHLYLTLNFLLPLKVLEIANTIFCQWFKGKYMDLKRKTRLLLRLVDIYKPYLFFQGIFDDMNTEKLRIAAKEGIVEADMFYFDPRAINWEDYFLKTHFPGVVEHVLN
Sequence of jojoba acyl-CoA reductase (Simmondsia chinensis, UniProt Q9XGY7) (Q9XGY7 whole entry S459G): as above

## O[C@H](CS)[C@H](O)CS (racemic) [DTT, Dithiothreitol]
[1]
  effect of effector on reductase activity (in words): stimulatory

## CCCCCCCCCCCCCC(=O)SCCNC(=O)CCNC(=O)[C@H](O)C(C)(C)COP(=O)(O)OP(=O)(O)OC[C@H]1O[C@@H](n2cnc3c(N)ncnc32)[C@H](O)[C@@H]1OP(=O)(O)O [14:0]
Jojoba wax synthase
  Wax synthase Activity, Acyl Group: 95 pmol/min
  Wax synthase Activity, Alcohol Group: 145 pmol/min

## CCCCCCCCCCCCCCCC(=O)SCCNC(=O)CCNC(=O)[C@H](O)C(C)(C)COP(=O)(O)OP(=O)(O)OC[C@H]1O[C@@H](n2cnc3c(N)ncnc32)[C@H](O)[C@@H]1OP(=O)(O)O [16:0, palmitoyl-CoA]
[2]
  IC50: 5 µM

## CCCCCCCCCCCCCCCCCC(=O)SCCNC(=O)CCNC(=O)[C@H](O)C(C)(C)COP(=O)(O)OP(=O)(O)OC[C@H]1O[C@@H](n2cnc3c(N)ncnc32)[C@H](O)[C@@H]1OP(=O)(O)O [18:0]
[1]
  Reductase Activity, Acyl-CoA (10 μM): 1.4 pmol/min/µL
Jojoba wax synthase
  Wax synthase Activity, Acyl Group: 51 pmol/min
  Wax synthase Activity, Alcohol Group: 56 pmol/min

## CCCCC/C=C\C/C=C\CCCCCCCC(=O)SCCNC(=O)CCNC(=O)[C@H](O)C(C)(C)COP(=O)(O)OP(=O)(O)OC[C@H]1O[C@@H](n2cnc3c(N)ncnc32)[C@H](O)[C@@H]1OP(=O)(O)O [18:2]
Jojoba wax synthase
  Wax synthase Activity, Acyl Group: 7 pmol/min
  Wax synthase Activity, Alcohol Group: 123 pmol/min

## CCCCCCCCCCCCCCCCCCCC(=O)SCCNC(=O)CCNC(=O)[C@H](O)C(C)(C)COP(=O)(O)OP(=O)(O)OC[C@H]1O[C@@H](n2cnc3c(N)ncnc32)[C@H](O)[C@@H]1OP(=O)(O)O [20:0]
Jojoba wax synthase
  Wax synthase Activity, Acyl Group: 49 pmol/min
  Wax synthase Activity, Alcohol Group: 21 pmol/min

## CCCCCCCCCCCCCCCCCCCCCC(=O)SCCNC(=O)CCNC(=O)[C@H](O)C(C)(C)COP(=O)(O)OP(=O)(O)OC[C@H]1O[C@@H](n2cnc3c(N)ncnc32)[C@H](O)[C@@H]1OP(=O)(O)O [22:0]
Jojoba wax synthase
  Wax synthase Activity, Acyl Group: 46 pmol/min
  Wax synthase Activity, Alcohol Group: 17 pmol/min

## CCCCCCCC/C=C\CCCCCCCCCCCC(=O)SCCNC(=O)CCNC(=O)[C@H](O)C(C)(C)COP(=O)(O)OP(=O)(O)OC[C@H]1O[C@@H](n2cnc3c(N)ncnc32)[C@H](O)[C@@H]1OP(=O)(O)O [22:1]
[1]
  Reductase Activity, Acyl-CoA (10 μM): 1.0 pmol/min/µL
Jojoba wax synthase
  Wax synthase Activity, Acyl Group: 39 pmol/min
  Wax synthase Activity, Alcohol Group: 41 pmol/min

## NC(=O)c1ccc[n+]([C@@H]2O[C@H](COP(=O)([O-])OP(=O)(O)OC[C@H]3O[C@@H](n4cnc5c(N)ncnc54)[C@H](O)[C@@H]3O)[C@@H](O)[C@H]2O)c1 [AND+]
[1]
  effect of end-products and cofactors on reductase activity (in words): marginal effects

## C[C@H](CCC(=O)NCCC[N+](C)(C)CCCS(=O)(=O)[O-])[C@H]1CC[C@H]2[C@@H]3[C@H](O)C[C@@H]4C[C@H](O)CC[C@]4(C)[C@H]3C[C@H](O)[C@]12C [CHAPS, 3-[(3-cholamidopropyl)-dimethyl-ammonio]-1-propanesulfonate]
[1]; 0.3% w/v in the assay mixture
  effect on the reductase enzyme (in words): minimal effect
[3]
  effect on the acyl transferase reaction (in words): completely inhibits

## [Ca+2].[Cl-].[Cl-] [CaCl2]
[1]
  effect of salt on reductase activity (in words): stimulate reductase activity

## C/C=C/C/C=C/CCC(=O)[C@H]1O[C@H]1C(N)=O [Cerulinen]
[1]
  inhibitory effect on jojoba acyl-CoA reductase activity (in words): no strong inhibitory effect

## CC(C)(COP(=O)(O)OP(=O)(O)OC[C@H]1O[C@@H](n2cnc3c(N)ncnc32)[C@H](O)[C@@H]1OP(=O)(O)O)[C@@H](O)C(=O)NCCC(=O)NCCS [CoA]
[1]
  effect of end-products and cofactors on reductase activity (in words): significant inhibition

## O=C(O)CN(CCN(CC(=O)O)CC(=O)O)CC(=O)O [EDTA, ethylenediaminetetraacetic acid]
[1]
  effect of effector on reductase activity (in words): some stimulation

## [Cl-].[K+] [KC1]
[1]
  effect of salt on reductase activity (in words): stimulate reductase activity

## N#CS [KSCN]
[1]
  effect of salt on reductase activity (in words): no stimulation or marginal stimulation

## [Cl-].[Li+] [LiC1]
[1]
  effect of salt on reductase activity (in words): stimulate reductase activity

## CC[C@H](C)C(=O)O[C@H]1C[C@@H](C)C=C2C=C[C@H](C)[C@H](CC[C@@H]3C[C@@H](O)CC(=O)O3)[C@H]21 [Mevinolin]
[1]; only has an effect at relatively high concentrations
  concentration at which an effect on jojoba acyl-CoA reductase is seen: 100 µM

## [Cl-].[Cl-].[Mg+2] [MgCl2]
[1]
  effect of salt on reductase activity (in words): stimulate reductase activity

## CCCCCCCCCCCCCCCC(=O)SCCNC(C)=O [N-acetyl-S-palmitoyl cysteamine]
Jojoba wax synthase; [5]
  wax synthase activity towards acyl-thioester substrates (in words): no activity was detectable

## CCN1C(=O)C=CC1=O [N-ethylmaleimide]
[1]
  inhibitory effect on jojoba acyl-CoA reductase activity (in words): strongly inhibit

## NC(=O)C1=CN([C@@H]2O[C@H](COP(=O)(O)OP(=O)(O)OC[C@H]3O[C@@H](n4cnc5c(N)ncnc54)[C@H](O)[C@@H]3O)[C@@H](O)[C@H]2O)C=CC1 [NADH]
[1]
  effect of end-products and cofactors on reductase activity (in words): marginal effects

## NC(=O)c1ccc[n+]([C@@H]2O[C@H](COP(=O)([O-])OP(=O)(O)OC[C@H]3O[C@@H](n4cnc5c(N)ncnc54)[C@H](OP(=O)(O)O)[C@@H]3O)[C@@H](O)[C@H]2O)c1 [NADP+]
[1]
  effect of end-products and cofactors on reductase activity (in words): significant inhibition

## O=S(=O)([O-])[O-].[Na+].[Na+] [Na2 SO4]
[1]
  effect of salt on reductase activity (in words): stimulate reductase activity

## [Cl-].[Na+] [NaCl]
[1]; addition of 0.5M salt, 500000 µM
  stimulation of reductase activity: Up to 15 fold

## NC(=O)CI [iodoacetamide]
[1]
  inhibitory effect on jojoba acyl-CoA reductase activity (in words): no effect

## O=C(O)c1cc[c]([Hg][OH])cc1 [para-hydroxymercuribenzoate]
[1]
  inhibitory effect on jojoba acyl-CoA reductase activity (in words): some inhibitory effect

## bovine serum albumin [BSA]
[1]; concentrations at and above 0.2 mg/ml
  effect on reductase activity (in words): inhibition of activity
[1]; low concentrations, 0.02-0.075 mg/ml
  effect on reductase activity (in words): small stimulation

## palmitoyl-ACP [16:0]
[1]; substrate specificity experiment, 10 uM substrate
  activity as substrate of the reductase (in words): high
Jojoba wax synthase; [5]
  wax synthase activity relative to acyl-CoA: ~ 10 % of that with acyl-CoA

## stearoyl-ACP
[4]
  activity as substrate of the reductase (in words): shown to have activity as a substrate
